Source: patent publication EP4755881A1 (Wuhan Createrna Science and Technology Co., Ltd., priority 2023, dated 2025)
pIC50: −log10 of the molar value. Read-outs that look alike come from different tables or passages of the source. One block for each compound: values may come before it.

Key:
LPAR1 receptor = target: T1, LPAR1 receptor (Homo sapiens, UniProt Q92633); assay: LPAR1 in vitro biological activity evaluation 2: HTRF cAMP kit (LANCE Ultra cAMP Kit) assay in CHO stable transfected cell line expressing the LPAR1 receptor; format: cell-based
T1 construct: expressed in transfected cells
T1 sequence (Q92633 whole entry): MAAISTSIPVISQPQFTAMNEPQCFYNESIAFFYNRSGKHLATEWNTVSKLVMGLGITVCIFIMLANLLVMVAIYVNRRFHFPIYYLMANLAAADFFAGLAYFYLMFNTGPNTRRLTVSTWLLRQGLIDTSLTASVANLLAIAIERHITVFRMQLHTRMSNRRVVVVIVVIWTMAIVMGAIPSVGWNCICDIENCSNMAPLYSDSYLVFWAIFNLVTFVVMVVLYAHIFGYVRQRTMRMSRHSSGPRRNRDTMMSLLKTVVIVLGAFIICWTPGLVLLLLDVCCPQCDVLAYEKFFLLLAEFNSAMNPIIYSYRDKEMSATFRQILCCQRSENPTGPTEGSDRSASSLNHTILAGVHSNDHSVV
Description: The inhibitory effects of the compounds of the present disclosure on the LPAR1 receptor were determined using a Chinese hamster ovary (CHO) stable transfected cell line expressing the LPAR1 receptor, through the HTRF cAMP kit (LANCE® Ultra cAMP Kit).
The CHO cell line expressing the LPAR1 receptor was cultured in F-12 medium (Gibco, 117650054) containing 10% fetal bovine serum (FBS, Avantor, 76294-180) and 0.2 mg/mL hygromycin B (Solarbio, H8080-1g) at 37°C with 5% CO2. Cell passage, recovery, and cryopreservation were performed according to conventional methods. The stable transfected cell line was cultured to 80% confluence, digested with trypsin to collect cells, counted, and then seeded at 5 µL/well in a 384-well plate (500 cells/5 µL). The 1× Stimulation Buffer was prepared according to the instructions of the kit (LANCE® Ultra cAMP Kit). 1 µL of the test compound solution (diluted to 10× with 1× Stimulation Buffer) was added to the corresponding experimental wells, followed by centrifugation and incubation at 37°C for 10 minutes. […] 5 µL/well of Eu-cAMP (diluted with Detection buffer) was added to the corresponding experimental wells. 5 µL/well of ULight™-anti-cAMP antibody (diluted with Detection buffer) was added to the corresponding experimental wells, followed by centrifugation and incubation at room temperature for 1 hour. After the incubation was completed, the readings at 665 nm and 620 nm under 330 nm excitation were detected using the HTS high-throughput drug screening multifunctional microplate reader (BMG, PHERAstar FSX). The IC50 values were calculated by fitting nonlinear regression (dose response - variable slope) using GraphPad Prism software.

[1] = Pharmacokinetic study in rats (oral gavage and tail vein injection, plasma LC-MS/MS); format: in vivo; details: rat; for Cmax: read-out: Cmax
How it was run: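 Male SD rats (200–250 g) are dosed orally (fasted; 5% DMSO/5% ethanol/60% PEG400/30% saline) or by tail-vein injection (10% ethanol/20% water/70% PEG400). Plasma sampled up to 24 h is analysed by LC-MS/MS. Non-compartmental analysis yields Cmax, C0, Tmax, AUC and T1/2.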

[2] = Table 2, read-out: LPAR1 inhibitory activity IC50

SMILES: CCCC(C)OC(=O)Nc1c(-c2ccc(C#CC3CCCC3C(=O)O)c(C)n2)nnn1C (single isomer, unassigned) [305-B]
pIC50 (LPAR1 receptor; [2]): 7.09 | AUC(0-t) ([1]; SD rats, Iv, 1 mg/kg): 3000 to 5000 ng·h/mL | half-life ([1]; SD rats, Iv, 1 mg/kg): 3.52 h | Cmax ([1]; SD rats, Iv, 1 mg/kg): 800 to 5000 ng/mL | AUC(0-t) ([1]; SD rats, Po, 1 mg/kg): 5000 to 10000 ng·h/mL | half-life ([1]; SD rats, Po, 1 mg/kg): 3.49 h | Cmax ([1]; SD rats, Po, 1 mg/kg): 800 to 5000 ng/mL

pIC50 (LPAR1 receptor; [2]): 6.39 | half-life ([1]; male, SD, iv, 1 mg/kg): 3.26 h | half-life ([1]; male, SD, po, 1 mg/kg): 2.37 h | half-life ([1]; male, SD, po, 3 mg/kg): 2.59 h | AUC(0-t) ([1]; male, SD rats, Iv, 1 mg/kg): 811 ng·h/mL | Cmax ([1]; male, SD rats, Iv, 1 mg/kg): 1570 ng/mL | AUC(0-t) ([1]; male, SD rats, Po, 1 mg/kg): 626 ng·h/mL | Cmax ([1]; male, SD rats, Po, 1 mg/kg): 154 ng/mL | AUC(0-t) ([1]; male, SD rats, Po, 3 mg/kg): 1540 ng·h/mL | Cmax ([1]; male, SD rats, Po, 3 mg/kg): 985 ng/mL
SMILES: CCCN(C)C(=O)OCc1c(-c2ccc(O[C@H]3CCC[C@H](C(=O)O)C3)c(C)n2)nnn1C [Control compound 1, reference compound]

SMILES: CCc1nc(-c2nnn(C)c2NC(=O)O[C@H](C)CC(C)(F)F)ccc1C#CC1(CC(=O)O)CC1 [compound 232]
pIC50 (LPAR1 receptor; [2]): 7.12 | AUC(0-t) ([1]; SD rats, Iv, 1 mg/kg): 5000 to 10000 ng·h/mL | half-life ([1]; SD rats, Iv, 1 mg/kg): 14.5 h | Cmax ([1]; SD rats, Iv, 1 mg/kg): 800 to 5000 ng/mL | AUC(0-t) ([1]; SD rats, Po, 1 mg/kg): 3000 to 5000 ng·h/mL | half-life ([1]; SD rats, Po, 1 mg/kg): 14 h | Cmax ([1]; SD rats, Po, 1 mg/kg): 200 to 800 ng/mL

SMILES: Cc1nc(-c2onc(C)c2NC(=O)O[C@H](C)CC(C)(F)F)ccc1C#CC1(CC(=O)O)CC1 [compound 276]
pIC50 (LPAR1 receptor; [2]): 7.02 | AUC(0-t) ([1]; SD rats, Iv, 1 mg/kg): 3000 to 5000 ng·h/mL | half-life ([1]; SD rats, Iv, 1 mg/kg): 3.69 h | Cmax ([1]; SD rats, Iv, 1 mg/kg): 800 to 5000 ng/mL

pIC50 (LPAR1 receptor; [2]): 7.08 | half-life ([1]; male, SD, iv, 1 mg/kg): 4.36 h | half-life ([1]; male, SD, po, 1 mg/kg): 4.08 h | AUC(0-t) ([1]; male, SD rats, Iv, 1 mg/kg): 3000 to 5000 ng·h/mL | Cmax ([1]; male, SD rats, Iv, 1 mg/kg): 800 to 5000 ng/mL | AUC(0-t) ([1]; male, SD rats, Po, 1 mg/kg): 5000 to 10000 ng·h/mL | Cmax ([1]; male, SD rats, Po, 1 mg/kg): 800 to 5000 ng/mL
SMILES: Cc1nc(-c2nnn(C)c2NC(=O)O[C@H](C)c2ccccc2)ccc1C#C[C@@H]1CC[C@H]1C(=O)O [compound 309]

pIC50 (LPAR1 receptor; [2]): 7.48 | half-life ([1]; male, SD, iv, 1 mg/kg): 6.87 h | half-life ([1]; male, SD, po, 1 mg/kg): 5.7 h | AUC(0-t) ([1]; male, SD rats, Iv, 1 mg/kg): 3000 to 5000 ng·h/mL | Cmax ([1]; male, SD rats, Iv, 1 mg/kg): 5000 to 8000 ng/mL | AUC(0-t) ([1]; male, SD rats, Po, 1 mg/kg): 3000 to 5000 ng·h/mL | Cmax ([1]; male, SD rats, Po, 1 mg/kg): 200 to 800 ng/mL
SMILES: CCOC1CC(C#Cc2ccc(-c3nnn(C)c3NC(=O)O[C@H](C)C(F)(F)CC)nc2C)(CC(=O)O)C1 (stereo partly shown) [compound 429]

SMILES: CCC(F)(F)[C@@H](C)OC(=O)Nc1c(-c2ccc(C#CC3(CC(=O)O)CC3)c(C)n2)noc1C [compound 444]
pIC50 (LPAR1 receptor; [2]): 7.32 | AUC(0-t) ([1]; SD rats, Iv, 1 mg/kg): 1200 to 3000 ng·h/mL | half-life ([1]; SD rats, Iv, 1 mg/kg): 2.91 h | Cmax ([1]; SD rats, Iv, 1 mg/kg): 800 to 5000 ng/mL | AUC(0-t) ([1]; SD rats, Po, 1 mg/kg): 3000 to 5000 ng·h/mL | half-life ([1]; SD rats, Po, 1 mg/kg): 3.61 h | Cmax ([1]; SD rats, Po, 1 mg/kg): 200 to 800 ng/mL

pIC50 (LPAR1 receptor; [2]): 7.63
SMILES: CCC(F)(F)[C@@H](C)OC(=O)Nc1c(-c2ccc(C#CC3(CC(=O)O)CC(OC)C3)c(Cl)n2)nnn1C (stereo partly shown) [compound 461]

pIC50 (LPAR1 receptor; [2]): 7.31 | half-life ([1]; male, SD, iv, 1 mg/kg): 6.41 h | half-life ([1]; male, SD, po, 1 mg/kg): 5.41 h | AUC(0-t) ([1]; male, SD rats, Iv, 1 mg/kg): 5000 to 10000 ng·h/mL | Cmax ([1]; male, SD rats, Iv, 1 mg/kg): 8000 to 12000 ng/mL | AUC(0-t) ([1]; male, SD rats, Po, 1 mg/kg): 10000 to 20000 ng·h/mL | Cmax ([1]; male, SD rats, Po, 1 mg/kg): 800 to 5000 ng/mL
SMILES: CCc1nc(-c2nnn(C)c2NC(=O)O[C@H](C)C(F)(F)CC)ccc1C#CC1(CC(=O)O)CC(OC)C1 (stereo partly shown) [compound 462]

SMILES: CCC(F)(F)[C@@H](C)OC(=O)Nc1c(-c2ccc(C#CC3(CC(=O)O)CC(OC)C3)c(C(F)(F)F)n2)nnn1C (stereo partly shown) [compound 463]
pIC50 (LPAR1 receptor; [2]): 7.42 | AUC(0-t) ([1]; SD rats, Iv, 1 mg/kg): 3000 to 5000 ng·h/mL | half-life ([1]; SD rats, Iv, 1 mg/kg): 5.44 h | Cmax ([1]; SD rats, Iv, 1 mg/kg): 5000 to 8000 ng/mL | AUC(0-t) ([1]; SD rats, Po, 1 mg/kg): 5000 to 10000 ng·h/mL | half-life ([1]; SD rats, Po, 1 mg/kg): 5.47 h | Cmax ([1]; SD rats, Po, 1 mg/kg): 800 to 5000 ng/mL

SMILES: COC1CC(C#Cc2ccc(-c3nnn(C)c3NC(=O)O[C@H](C)c3ccccc3)nc2C)(CC(=O)O)C1 (stereo partly shown) [compound 464]
pIC50 (LPAR1 receptor; [2]): 7.63

SMILES: COC1CC(C#Cc2ccc(-c3nnn(C)c3NC(=O)O[C@H](C)c3ccccc3Cl)nc2C)(CC(=O)O)C1 (stereo partly shown) [compound 465]
pIC50 (LPAR1 receptor; [2]): 7.51

pIC50 (LPAR1 receptor; [2]): 7.59
SMILES: COC1CC(C#Cc2ccc(-c3nnn(C)c3NC(=O)O[C@H](C)c3ccccc3F)nc2C)(CC(=O)O)C1 (stereo partly shown) [compound 466]

pIC50 (LPAR1 receptor; [2]): 7.78
SMILES: CCOC1CC(C#Cc2ccc(-c3nnn(C)c3NC(=O)O[C@H](C)C(F)(F)CC)nc2Cl)(CC(=O)O)C1 (stereo partly shown) [compound 467]

SMILES: CCC(F)(F)[C@@H](C)OC(=O)Nc1c(-c2ccc(C#CC3(CC(=O)O)CC(OC)C3)c(C)n2)noc1C (stereo partly shown) [compound 468]
pIC50 (LPAR1 receptor; LPAR1 inhibitory activity IC50, Table 2): 7.50 | AUC(0-t) ([1]; SD rats, Iv, 1 mg/kg): 3000 to 5000 ng·h/mL | half-life ([1]; SD rats, Iv, 1 mg/kg): 2.35 h | Cmax ([1]; SD rats, Iv, 1 mg/kg): 800 to 5000 ng/mL | AUC(0-t) ([1]; SD rats, Po, 1 mg/kg): 5000 to 10000 ng·h/mL | half-life ([1]; SD rats, Po, 1 mg/kg): 2.77 h | Cmax ([1]; SD rats, Po, 1 mg/kg): 200 to 800 ng/mL

pIC50 (LPAR1 receptor; [2]): 7.62
SMILES: CCC(F)(F)[C@@H](C)OC(=O)Nc1c(-c2ccc(C#CC3(CC(=O)O)CC(OC)C3)c(Cl)n2)noc1C (stereo partly shown) [compound 470]

pIC50 (LPAR1 receptor; [2]): 7.47
SMILES: CCC(F)(F)[C@@H](C)OC(=O)Nc1c(C)noc1-c1ccc(C#CC2(CC(=O)O)CC(OC)C2)c(Cl)n1 (stereo partly shown) [compound 471]

pIC50 (LPAR1 receptor; [2]): 6.78
SMILES: CCC(F)(F)[C@@H](C)OC(=O)Nc1c(-c2ccc(C#Cc3ccncc3C(=O)O)c(C)n2)nnn1C [compound 474, (R)-4-((6-(5-((((3,3-difluoropentan-2-yl)oxy)carbonyl)amino)-1-methyl-1H-1,2,3-triazol-4-yl)-2-methylpyridin-3-yl)ethynyl)nicotinic acid]

pIC50 (LPAR1 receptor; [2]): 7.12
SMILES: CCc1nc(-c2nnn(C)c2NC(=O)O[C@H](C)CC(C)(F)F)ccc1C#CC1(CC(=O)O)CC(OC)C1 (stereo partly shown) [compound 476]
